The record followed here is BindingDB's records for doi:10.1016/j.bmcl.2003.11.084 (Liaoning Normal University, 2004).

A short description of assay [1]: Inhibitory activity against the calf thymus DNA topoisomerase I.
Assay [2] in a line: Inhibitory activity against the wheat germ DNA topoisomerase I.
Test in assay [3]: as above
This is another data set of the same source.

Each structure is given as a SMILES string.

By IC50 is commonly meant the point on the concentration scale where inhibition reaches its midpoint. Take `C(=C\c1ccco1)/c1cc(-c2ccco2)cc(-c2cccs2)n1` [4-Furan-2-yl-2-((E)-2-furan-2-yl-vinyl)-6-thiophen-2-yl-pyridine]: the concentration for half-maximal inhibition (IC50) in assay [1] is 200 µM; in assay [2], less than 10 µM.

`c1coc(-c2cc(-c3cccs3)nc(-c3cccs3)c2)c1` [4-Furan-2-yl-2,6-di-thiophen-2-yl-pyridine]: in assay [3], 50 µM corresponded to half-maximal inhibition (IC50).

Turning to `c1coc(-c2ccnc(-c3cccs3)c2)c1` [4-Furan-2-yl-2-thiophen-2-yl-pyridine], in assay [3], the half-maximal inhibitory concentration (IC50) came to 400 µM.
